Results from patent publication US6472404B1 (priority 2000, dated 2002).

How the values were obtained:
[1] = tested on: HIV-HXB2; assay: Antiviral assay: protection of HIV-infected MT4 cells from cell death (MTT); assay type: cell-based; details: Human immunodeficiency virus 1, 120 h; MT4 cells infected with HIV-HXB2; 5 days; MTT viability; rounded to nearest whole number
Method: Methods 20: 309-321]. The method is based on the ability of compounds to protect HIV-infected T lymphoblastoid cells (MT4 cells) from cell-death mediated by the infection. The endpoint of the assay was calculated as the concentration of compound at which the cell viability of the culture was preserved by 50% (‘50% inhibitory concentration’, IC50). The cell viability of a culture was determined by the uptake of soluble, yellow 3-[4,5-dimethylthiazol-2-yl]-2,5-diphenyltetrazolium bromide (MTT) and its reduction to a purple insoluble formazan salt. After solubilization, spectrophotometric methods were employed to measure the amount of formazan product.
MT4 cells were prepared to be in logarithmic-phase growth and a total of 2×10^6 cells infected with either the wild type or site directed mutant clones of HIV-HXB2 at a multiplicity of approximately 0.0001 infectious units of virus per cell in a total volume of between 200-500 μl. The cells were incubated with virus for one hour at 37° C. then washed in 0.01 M phosphate buffered saline, pH 7.2, and resuspensed in culture medium for incubation in culture with serial dilutions of test compound. The culture medium used was RPMI 1640 without phenol red, supplemented with penicillin, streptomycin, L-glutamine and 10% fetal calf serum (GM10).
Test compounds were prepared as 2 mM solutions in dimethyl sulphoxide (DMSO). Four replicate, serial 2-fold dilutions in GM10 were then prepared and 50 microliter amounts placed in 96-well plates over a final concentration range of […]. Fifty microliters GM10 and 3.75×10^4 infected cells were then added to each well. Control cultures containing no cells (blank), uninfected cells (100% viability; 4 replicates) and infected cells without compound (total virus-mediated cell death; 4 replicates) were also prepared. The cultures were then incubated at 37° C. in a humidified atmosphere of 5% CO2 in air for 5 days.
A fresh solution of 5 mg/mL MTT was prepared in 0.01 M phosphate buffered saline, pH 7.2 and 20 μL added to each culture. The cultures were further incubated as before for 2 hours. They were then mixed by pipetting up and down, and 170 microliters of Triton X-100 in acidified isopropanol (10% v/v Triton X-100 in 1:250 mixture of concentrated HCl in isopropanol) were added and the cultures were mixed again by pipetting up and down. When the formazan deposit was fully solubilized by further mixing, the absorbance (OD) of the cultures was measured at 540 nm and 690 nm wavelength (690 nm readings were used as blanks for artefacts between wells). The percent protection for each treated culture was then calculated from the equation:
OD drug-treated cultures)−(OD untreated virus control cultures) % Protection=100%
(OD uninfected cultures)−(OD untreated virus control cultures)
The IC50 was then obtained from graph plots of percentage protection versus log10 drug concentration.

[2] = molecular target: HIV-1 protease (Human immunodeficiency virus type 1 group M subtype B, UniProt P04585); assay: HIV protease inhibition assay (quenched fluorogenic substrate, fluorescence energy transfer)
Method: HIV protease inhibitory activity was assessed using an adaptation of the method of Matayoshi. et al. [Matayoshi E. D. et al (1990).
Crude HIV-1 protease was prepared from E. coli pPTΔN. Cultures were grown at 30° in M9 medium supplemented with 0.2% casamino acids, 100 μg/ml ampicillin and 25 μg/ml thiamine until OD600=0.5-0.6, and the temperature was raised to 42° to induce expression of the protease. After 1.5 hours, the cells were harvested and the pellets stored at −70° until required.
The protease was prepared by lysis of the cells in a French pressure cell followed by precipitation of the enzyme with ammonium sulfate at 30% saturation.
The assay buffer comprised 0.1M sodium acetate pH 4.7, 8 mM EDTA, 0.2 M NaCl.
Tubes were incubated for 2 hours at 37° and the reaction was terminated by the addition of 500 μl of a 2:1 mixture of DMSO:50 mM Tricine pH 8.5. Fluorescence was measured in a fluorescence spectrophotometer, excitation λ=340 nm, emission λ=492 nm.

SMILES	melting point	IC50 [1]	IC50 [2]
CC(C)(C)NC(=O)[C@@H]1C[C@@H]2CCCC[C@@H]2CN1C[C@@H](O)[C@H](Cc1ccccc1)NC(=O)[C@@H](Nc1nc(CO)cs1)C(C)(C)S(C)(=O)=O	126 °C	–	–
CC(C)(C)NC(=O)[C@@H]1C[C@@H]2CCCC[C@@H]2CN1C[C@@H](O)[C@H](Cc1ccccc1)NC(=O)[C@@H](n1cc[nH]c1=O)C(C)(C)S(C)(=O)=O	228 to 230 °C	–	–
CC(C)(C)NC(=O)[C@@H]1C[C@@H]2CCCC[C@@H]2CN1C[C@@H](O)[C@H](Cc1ccccc1)NC(=O)[C@@H](NC(=O)COc1cccc(F)c1)C(C)(C)S(C)(=O)=O	197 to 199 °C	–	–
CC(C)(C)NC(=O)[C@@H]1C[C@@H]2CCCC[C@@H]2CN1C[C@@H](O)[C@H](Cc1ccccc1)NC(=O)[C@@H](NS(C)(=O)=O)C(C)(C)S(C)(=O)=O	135 to 160 °C	–	–
COC(=O)N[C@H](C(=O)N[C@@H](Cc1ccccc1)[C@H](O)CN1C[C@H]2CCCC[C@H]2C[C@H]1C(=O)NC(C)(C)C)C(C)(C)S(C)(=O)=O [Example 4, N-tert-Butyl-1,2,3,4,4a(S),5,6,7,8,8a(S)-decahydro-2-[2(R)-hydroxy-3(S)-[[3-(methanesulfonyl)-N-(methoxycarbonyl)-L-valyl]amino]-4-phenylbutyl]-3(S)-isoquinolinecarboxamide]	190 to 194 °C	14 nM	2.8 nM
CC(C)(C)NC(=O)[C@@H]1C[C@@H]2CCCC[C@@H]2CN1C[C@@H](O)[C@H](Cc1ccccc1)NC(=O)CC(C)(C)S(C)(=O)=O [Example 95, N-tert-Butyl-1,2,3,4,4a(S),5,6,7,8,8a(S)-decahydro-1-[2(R)-hydroxy-3(S)-[3-(methanesulfonyl)butyramido]-4-phenylbutyl]-2(S)-piperazinecarboxamide]	95 to 110 °C	250 nM	61 nM
CC(C)(C)NC(=O)[C@@H]1C[C@@H]2CCCC[C@@H]2CN1C[C@@H](O)[C@H](Cc1ccccc1)NC(=O)[C@@H](NC(=O)N1CCOCC1)C(C)(C)S(C)(=O)=O [Example 106, N-tert-Butyl-1,2,3,4,4a(S),5,6,7,8,8a(S)-decahydro-2-[2(R)-hydroxy-3(S)-[[3-(methanesulfonyl)-N-(morpholinocarbonyl)-L-valyl]amino]-4 phenylbutyl]-3(S)-isoquinolinecarboxamide]	–	60 nM	10.7 nM
CC(C)(C)NC(=O)[C@@H]1C[C@@H]2CCCC[C@@H]2CN1C[C@@H](O)[C@H](Cc1ccccc1)NC(=O)[C@@H](NCc1ccccc1)C(C)(C)S(C)(=O)=O [Example 112, 2-[3(S)-[[N-Benzyl-3-(methanesulfonyl)-L-valyl]amino]-2(R)-hydroxy-4-phenylbutyl]-N-tert-butyl-1,2,3,4,4a(S),5,6,7,8,8a(S)-decahydro-3(S)-isoquinolinecarboxamide]	–	94 nM	7.5 nM
Cc1csc(N[C@H](C(=O)N[C@@H](Cc2ccccc2)[C@H](O)CN2C[C@H]3CCCC[C@H]3C[C@H]2C(=O)NC(C)(C)C)C(C)(C)S(C)(=O)=O)n1 [Example 138, N-tert-Butyl-1,2,3,4,4a(S),5,6,7,8,8a(S)-decahydro-2-[2(R)-hydroxy-3(S)-[[3-(methanesulfonyl)-N-(4-methyl-2-thiazolyl)-L-valyl]amino]-4-phenylbutyl]-3(S)-isoquinolinecarboxamide]	–	65 nM	7.8 nM
CC(C)(C)NC(=O)[C@@H]1C[C@@H]2CCCC[C@@H]2CN1C[C@@H](O)[C@H](Cc1ccccc1)NC(=O)[C@@H](NC(=O)COc1ccccn1)C(C)(C)S(C)(=O)=O [Example 152]	–	17 nM	1.2 nM
CC(C)(C)NC(=O)[C@@H]1C[C@@H]2CCCC[C@@H]2CN1C[C@@H](O)[C@H](Cc1ccccc1)NC(=O)[C@@H](NC(=O)COc1cccnn1)C(C)(C)S(C)(=O)=O [Example 154]	–	16 nM	0.5 nM
CC(C)(C)NC(=O)[C@@H]1C[C@@H]2CCCC[C@@H]2CN1C[C@@H](O)[C@H](Cc1ccccc1)NC(=O)[C@@H](NC(=O)NCc1ccccc1)C(C)(C)S(C)(=O)=O [Example 168, 2-[3(S)-[[N-(Benzylcarbamoyl)-3-(methanesulfonyl)-L-valyl]amino]-2(R)-hydroxy-4-phenylbutyl]-N-tert-butyl-1,2,3,4,4a(S),5,6,7,8,8a(S)-decahydro-3(S)-isoquinolinecarboxamide]	–	16 nM	0.5 nM
CN(Cc1cccnc1)C(=O)N[C@H](C(=O)N[C@@H](Cc1ccccc1)[C@H](O)CN1C[C@H]2CCCC[C@H]2C[C@H]1C(=O)NC(C)(C)C)C(C)(C)S(C)(=O)=O [Example 170, N-tert-Butyl-1,2,3,4,4a(S),5,6,7,8,8a(S)-decahydro-2-[2(R)-hydroxy-3(S)-[[3-(methanesulfonyl)-N-[N-methyl-N-[(3-pyridyl)methyl]carbamoyl]-L-valyl]amino]-4-phenylbutyl]-3(S)-isoquinolinecarboxamide]	–	13 nM	1 nM
